Type in all cases: cell-based
Assay [1] deals with T1, AR protein (Homo sapiens, UniProt P10275, T878A).
T1 construct: degradation activity of the compounds disclosed in the present disclosure on AR protein in LNCaP cells; host or cells: LNCaP FGC
T1 sequence (P10275 1-920 T878A): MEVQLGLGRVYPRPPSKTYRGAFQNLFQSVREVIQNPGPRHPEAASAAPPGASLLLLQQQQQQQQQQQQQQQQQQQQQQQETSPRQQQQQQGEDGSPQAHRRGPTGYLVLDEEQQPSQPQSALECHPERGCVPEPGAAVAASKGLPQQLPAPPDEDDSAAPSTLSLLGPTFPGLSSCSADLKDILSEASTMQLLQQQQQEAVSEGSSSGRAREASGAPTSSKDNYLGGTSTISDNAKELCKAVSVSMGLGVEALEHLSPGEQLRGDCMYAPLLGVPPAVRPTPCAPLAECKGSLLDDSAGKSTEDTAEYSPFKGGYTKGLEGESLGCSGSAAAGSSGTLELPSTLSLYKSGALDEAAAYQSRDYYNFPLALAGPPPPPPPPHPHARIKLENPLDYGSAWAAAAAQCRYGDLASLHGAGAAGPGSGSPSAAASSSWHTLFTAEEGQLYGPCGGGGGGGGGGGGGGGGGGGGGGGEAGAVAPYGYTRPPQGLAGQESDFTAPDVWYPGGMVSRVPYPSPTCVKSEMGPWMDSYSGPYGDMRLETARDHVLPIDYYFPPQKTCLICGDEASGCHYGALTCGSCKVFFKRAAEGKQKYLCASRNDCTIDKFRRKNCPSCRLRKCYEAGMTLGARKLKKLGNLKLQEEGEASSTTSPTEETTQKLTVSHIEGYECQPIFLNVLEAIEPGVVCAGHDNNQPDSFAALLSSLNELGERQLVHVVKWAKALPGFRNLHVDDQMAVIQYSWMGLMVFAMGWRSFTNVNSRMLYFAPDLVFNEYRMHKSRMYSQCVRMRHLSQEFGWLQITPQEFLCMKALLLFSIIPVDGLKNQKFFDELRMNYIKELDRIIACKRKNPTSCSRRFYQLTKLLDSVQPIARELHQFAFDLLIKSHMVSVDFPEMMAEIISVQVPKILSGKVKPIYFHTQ
Nature of the assay: Degradation of AR protein in LNCaP cells (Western blot). The conditions noted are these: for inhibition at 0.01 µM: read-out: Degradation rates of the AR protein in LNCaP cells, 10 nM (%); for inhibition at 0.1 µM: read-out: Degradation rates of the AR protein in LNCaP cells, 100 nM (%). Summed up: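 AR assessed by SDS-PAGE/Western blot with infrared imaging; band greyscale normalised to GAPDH gave percent degradation.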
(In general: A western blot detects proteins with antibodies after separation by electrophoresis.)

The target of assay [2] is T2, AR protein (Homo sapiens, UniProt P10275).
T2 construct: degradation activity of the compounds disclosed in the present disclosure on AR protein in VCaP cells; host or cells: VCaP
T2 sequence (P10275 1-920): T1 sequence (P10275 1-920 T878A) with A878T
Put plainly: Degradation of AR protein in VCaP cells (Western blot). The conditions noted are these: 8 hours; for inhibition at 0.01 µM: compound at 10 nM, read-out: Degradation rate of the AR protein in VCaP cells, 10 nM (%); for inhibition at 0.1 µM: compound at 100 nM, read-out: Degradation rate of the AR protein in VCaP cells, 100 nM (%). Summed up:
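VCaP cells treated with compound alongside solvent controls for 8 h, then lysed in RIPA and protein quantified by BCA. AR detected by SDS-PAGE/Western blot with infrared imaging. Degradation rate calculated from band grayscale, with GAPDH as internal reference.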

Another assay relates to LNCaP FGC cells. Put plainly: Inhibition of proliferation of LNCaP cells (WST-8). The procedure:
The cells were cultured in a cell culture incubator with 5% CO2 at 37° C. overnight. […] On the sixth day, 96 well plates were taken out, and 20 μL of WST-8 (Beytime, C0040) reagent was added to each well.

Another assay relates to VCaP cells. Put plainly: Inhibition of proliferation of VCaP cells (WST-8). The conditions noted are these: Homo sapiens, read-out: IC50 for inhibiting the proliferation of VCaP cells. The essentials:
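VCaP FGC cells, 15000 per well in DMEM with 10% FBS, were cultured at 37° C, 5% CO2. On day nine, WST-8 reagent was added to read proliferation.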
For orientation: Tetrazolium dyes change colour on reduction, which living cells bring about.

The mark [3] stands for this setting: LNCaP cells, compound 10 nM, 8 hours, Western blot grayscale, GAPDH internal reference.
Setting [4] is: LNCaP cells, compound 100 nM, 8 hours, Western blot grayscale, GAPDH internal reference.
[5] abbreviates: Homo sapiens, LNCaP, 96 h, LNCaP FGC cells, 96 hours, WST-8 absorbance at 450 nm, read-out: IC50 for inhibiting the proliferation of LNCaP cells.
Setting [6] is: VCaP cells, 168 hours, WST-8 absorbance at 450 nm.

Substitutions are numbered along the chain they refer to. Where two headings read alike, the source gives them in different places. Bounds are passed on as bounds.

For `CCOC1(CN2CCC3(CC2)COc2c3ccc3c2C(=O)N(C2CCC(=O)NC2=O)C3=O)CCN(c2ccc(C(=O)N[C@H]3CC[C@H](Oc4ccc(C#N)c(Cl)c4)CC3)nn2)CC1` (stereo partly drawn) [Compound 244], the inhibition at 0.01 µM on AR protein [1] (setting [3]) was -5%; on AR protein [2] it was 3%. In addition, the inhibition at 0.1 µM at AR protein [1] (setting [4]) was 65%; at AR protein [2], 56%. Besides, the IC50 in the assay on LNCaP FGC cells (setting [5]) was 0.17 µM; in the assay with VCaP cells (setting [6]), 0.068 µM.
On to `N#Cc1ccc(O[C@H]2CC[C@H](NC(=O)c3ccc(N4CC(N5CCC6(CC5)COc5cc7c(cc56)C(=O)N(C5CCC(=O)NC5=O)C7=O)C4)nn3)CC2)cc1Cl` (stereo partly drawn) [Compound 49], for which the inhibition at 0.01 µM at AR protein [1] (LNCaP, 8 h) stood at 24%; on AR protein [2] it was 24%. Also, the inhibition at 0.1 µM is 36% at AR protein [1] (LNCaP, 8 h) and 61% on AR protein [2]. The IC50 with LNCaP FGC cells (Homo sapiens, LNCaP, 96 h, read-out: IC50 for inhibiting the proliferation of LNCaP cells, LNCaP FGC cells, 96 hours, WST-8 absorbance at 450 nm) came to 2.81 µM; with VCaP cells (VCaP, 168 h), 4 µM.
For the compound `CCC1(CN2CCC3(CC2)COc2c3ccc3c2C(=O)N(C2CCC(=O)NC2=O)C3=O)CCN(c2ccc(C(=O)N[C@H]3C(C)(C)[C@H](Oc4ccc(C#N)c(OC)c4)C3(C)C)cc2)CC1` (stereo partly drawn) [Compound 286], the inhibition at 0.01 µM on AR protein [1] (setting [3]) was 22%; at AR protein [2] it was -33%. The results for the inhibition at 0.1 µM at AR protein [1] (setting [4]) and on AR protein [2] were 34% and -9%, respectively. In addition, the figures for the IC50 in the assay on LNCaP FGC cells (setting [5]) and with VCaP cells (setting [6]) were 3.72 µM and 0.057 µM, respectively.
`COc1cc(O[C@H]2C(C)(C)[C@H](NC(=O)c3ccc(N4CCC(C)(CN5CCC6(CC5)COc5c(ccc7c5C(=O)N(C5CCC(=O)NC5=O)C7)C6)CC4)cc3)C2(C)C)ccc1C#N` (stereo partly drawn) [Compound 266]: the inhibition at 0.01 µM at AR protein [1] (setting [3]) is 49%; on AR protein [2] it was 21%. Also, the inhibition at 0.1 µM at AR protein [1] (setting [4]) came to 73%; at AR protein [2], 74%. The IC50 amounted to 22.1 µM with LNCaP FGC cells (setting [5]) and 0.0035 µM with VCaP cells (setting [6]).
For `N#Cc1ccc(O[C@H]2CC[C@H](NC(=O)c3ccc(N4CC(CN5CCC6(CC5)COc5cc7c(cc56)C(=O)N(C5CCC(=O)NC5=O)C7=O)C4)nn3)CC2)cc1Cl` (stereo partly drawn) [Compound 55], the inhibition at 0.01 µM is 44% on AR protein [1] (setting [3]) and 77% on AR protein [2]. Besides, the inhibition at 0.1 µM at AR protein [1] (setting [4]) was found to be 69%; at AR protein [2], 80%. Also, the IC50 with LNCaP FGC cells (setting [5]) amounted to 1 µM; in the assay on VCaP cells (setting [6]) it was 0.083 µM.
As to `COc1cc(O[C@H]2C(C)(C)[C@H](NC(=O)c3ccc(N4CCC(CN5CCC6(CCc7cc8c(cc7O6)CN(C6CCC(=O)NC6=O)C8=O)CC5)CC4)cc3)C2(C)C)ccc1C#N` (stereo partly drawn) [Compound 296], the inhibition at 0.01 µM at AR protein [1] (setting [3]) was found to be 53%; at AR protein [2], 0%. Besides, the inhibition at 0.1 µM at AR protein [1] (setting [4]) came out at 63%; on AR protein [2] it was 59%. The IC50 in the assay on LNCaP FGC cells (setting [5]) is 6.6 µM; in the assay on VCaP cells (setting [6]), 0.001 µM.
On to `N#Cc1ccc(O[C@H]2CC[C@H](NC(=O)c3ccc(N4CCC(N5CCC6(CCc7cc8c(cc7O6)C(=O)N(C6CCC(=O)NC6=O)C8=O)CC5)C(F)(F)C4)nn3)CC2)cc1Cl` (stereo partly drawn) [Compound 27], for which the inhibition at 0.01 µM on AR protein [1] (setting [3]) was determined as 14%; on AR protein [2], 33%. In addition, the figures for the inhibition at 0.1 µM at AR protein [1] (setting [4]) and on AR protein [2] were 39% and 44%, respectively. In addition, the IC50 with LNCaP FGC cells (setting [5]) was determined as 0.11 µM; in the assay on VCaP cells (setting [6]), 0.38 µM.
Take `COC1(CN2CCC3(CCc4ccc5c(c4O3)CN(C3CCC(=O)NC3=O)C5=O)CC2)CCN(c2ccc(C(=O)N[C@H]3CC[C@H](Oc4ccc(C#N)c(Cl)c4)CC3)nn2)CC1` (stereo partly drawn) [Compound 167]: the inhibition at 0.01 µM at AR protein [1] (setting [3]) stood at 45%; on AR protein [2], 33%. For the same compound, the inhibition at 0.1 µM at AR protein [1] (setting [4]) turned out to be 18%; at AR protein [2] it was 67%. Moreover, the IC50 was 80.1 µM with LNCaP FGC cells (LNCaP FGC cells, 96 hours, WST-8 absorbance at 450 nm, read-out: IC50 for inhibiting the proliferation of LNCaP cells) and > 90 µM in the assay on VCaP cells (setting [6]).
For the compound `N#Cc1ccc(O[C@H]2CC[C@H](NC(=O)c3ccc(N4CCC(C#N)(CN5CCC6(CC5)COc5c6ccc6c5C(=O)N(C5CCC(=O)NC5=O)C6=O)CC4)nn3)CC2)cc1Cl` (stereo partly drawn) [Compound 227], the values for the inhibition at 0.01 µM at AR protein [1] (setting [3]) and on AR protein [2] were 45% and 24%, respectively. Besides, the inhibition at 0.1 µM was found to be 62% on AR protein [1] (setting [4]) and 60% at AR protein [2]. For the same compound, the IC50 in the assay with LNCaP FGC cells (setting [5]) is 0.17 µM; in the assay with VCaP cells (setting [6]), 0.03 µM.
On to `COc1cc(O[C@H]2C(C)(C)[C@H](NC(=O)c3ccc(N4CCC(C)(CN5CC6(CCc7ccc8c(c7O6)C(=O)N(C6CCC(=O)NC6=O)C8=O)C5)CC4)cc3)C2(C)C)ccc1C#N` (stereo partly drawn) [Compound 290], for which the inhibition at 0.01 µM was -14% on AR protein [1] (setting [3]) and -2% on AR protein [2]. Besides, the results for the inhibition at 0.1 µM at AR protein [1] (setting [4]) and on AR protein [2] were 18% and 6%, respectively. Also, the IC50 with LNCaP FGC cells (setting [5]) amounted to 60.9 µM; in the assay on VCaP cells (setting [6]), 9.42 µM.
For the compound `N#Cc1ccc(O[C@H]2CC[C@H](NC(=O)c3ccc(N4CCC5(CCc6cc7c(cc6O5)C(=O)N(C5CCC(=O)NC5=O)C7=O)CC4)nn3)CC2)cc1Cl` (stereo partly drawn) [Compound 28], the inhibition at 0.01 µM at AR protein [1] (setting [3]) worked out at 58%; at AR protein [2], 9%. The results for the inhibition at 0.1 µM at AR protein [1] (setting [4]) and on AR protein [2] were 60% and 35%, respectively. In addition, the IC50 came out at 3.9 µM in the assay on LNCaP FGC cells (setting [5]) and 6.2 µM with VCaP cells (setting [6]).
As to `N#Cc1ccc(O[C@H]2CC[C@H](NC(=O)c3ccc(N4CCC(F)(CN5CCC6(CC5)COc5cc7c(cc5C6)C(=O)N(C5CCC(=O)NC5=O)C7=O)CC4)nn3)CC2)cc1Cl` (stereo partly drawn) [Compound 67], the inhibition at 0.01 µM was found to be 37% on AR protein [1] (setting [3]) and 43% on AR protein [2]. Besides, the inhibition at 0.1 µM on AR protein [1] (setting [4]) turned out to be 60%; at AR protein [2], 72%. In addition, the figures for the IC50 with LNCaP FGC cells (setting [5]) and in the assay on VCaP cells (setting [6]) were 0.015 µM and 0.19 µM, respectively.

The record behind these values is patent US20260234157A1, “COMPOUND AND METHOD FOR TARGETED DEGRADATION OF ANDROGEN RECEPTOR” (Gan & Lee Pharmaceuticals Co., Ltd., priority 2023, published 2026).
